Results: US5767296A, “Deacetoxytaxol derivatives” (Daiichi Pharmaceutical Co., Ltd., priority 1994, dated 1998)
≈ marks a conversion by molar mass, not a printed value. Like-named read-outs stand apart in the source and are kept apart here.

Assays:
P388 = assay: Antitumor effect by MTT assay, P388 tumor cells; type: cell-based; conditions: Mus musculus, read-out: GI50 Value
Procedure: (§1) Each of three tumor cells, P388, PC-6 and PC-12, were inoculated in a 96-well microplate in amounts of 5.0×10^2 cells/150 μl/well of P388, 5.0×10^3 cells/150 μl/well of PC-6, and 1.0×10^3 cells/150 μl/well of PC-12, and after 2 hours in the case of P388 or after 24 hours in the cases of PC-6 and PC-12, test compound was added to the well in an amount of 50 μl/well in each case. Cells were cultivated for 3 days. Then, a 5 mg/ml solution of MTT [3-(4,5-dimethylthiazol-2-yl)-2,5-diphenyl-2H-tetrazolium bromide] was added to the well in an amount of 20 μl/well. After 4 hours, the culture liquid was removed, dimethylsulfoxide was added to the well in an amount of 150 μl/well, and the absorbance at 540 nm was measured. The antitumor effect was determined in terms of a concentration of the test compound required for suppressing the cell growth in the medicated group to 50% of the cell growth in the control group, i.e., a GI50 value (ng/ml).

PC-6 = assay: Antitumor effect by MTT assay, PC-6 tumor cells; type: cell-based; conditions: Homo sapiens, read-out: GI50 Value
Procedure: as §1

PC-12 = assay: Antitumor effect by MTT assay, PC-12 tumor cells; type: cell-based; conditions: Rattus norvegicus, read-out: GI50 Value
Procedure: as §1

tumor = conditions: background art; cited from earlier work
microtubules = conditions: background art; cited from earlier work
[1] = system: cancers of digestive tracts, in particular, the cancer of large intestine; conditions: background art; cited from earlier work

Row | SMILES | GI50 (P388; P388, 72 h) | GI50 (PC-6; PC-6, 72 h) | GI50 (PC-12; PC-12, 72 h) | GI50 (P388; 72 h, P388, 3 days, MTT) | GI50 (PC-6; 72 h, PC-6, 3 days, MTT) | GI50 (PC-12; 72 h, PC-12, 3 days, MTT) | antitumor activity compared with taxol (tumor) | inhibitory activity on the disassembly of microtubules in cytokinesis (microtubules) | effectiveness on cancers of digestive tracts [1]
1 | CCOC(=O)O[C@@]12CO[C@@H]1C[C@H](O)[C@@]1(C)C(=O)C(CCN3CCOCC3)C3=C(C)[C@@H](OC(=O)[C@H](O)[C@@H](NC(=O)OC(C)(C)C)c4ccccc4)C[C@@](O)([C@@H](OC(=O)c4ccccc4)[C@H]21)C3(C)C (stereo partly drawn) [Example 35, 13-O-[(2R,3S)-3-(tert-Butoxycarbonylamino)-2-hydroxy-3-phenylpropionyl]-10-deacetoxy-4-deacetyl4-O-ethoxycarbonyl-10-(2-morpholinoethyl)baccatin III] | 0.729 ng/mL (≈ 0.78 nM) | 1.83 ng/mL (≈ 1.96 nM) | 2.95 ng/mL (≈ 3.15 nM) | – | – | – | – | – | –
2 | CC(=O)O[C@@]12CO[C@@H]1C[C@H](O)[C@@]1(C)C(=O)[C@H](O)C3=C(C)[C@@H](OC(=O)[C@H](O)[C@@H](NC(=O)OC(C)(C)C)c4ccccc4)C[C@@](O)([C@@H](OC(=O)c4ccccc4)[C@H]21)C3(C)C [Taxotel, reference compound] | – | – | – | 5.3 ng/mL (≈ 6.56 nM) | 1.72 ng/mL (≈ 2.13 nM) | 49.7 ng/mL (≈ 61.5 nM) | equal to or higher than that of taxol | – | –
3 | COC(=O)CCC1C(=O)[C@@]2(C)[C@H]([C@H](OC(=O)c3ccccc3)[C@]3(O)C[C@H](OC(=O)[C@H](O)[C@@H](NC(=O)OC(C)(C)C)c4ccccc4)C(C)=C1C3(C)C)[C@]1(OC(C)=O)CO[C@@H]1C[C@@H]2O (stereo partly drawn) [Example 7, 13-O-[(2R,3S)-3-(tert-Butoxycarbonylamino)-2-hydroxy-3-phenylpropionyl]-10-deacetoxy-10-(2-methoxycarbonylethyl)baccatin III] | 3.3 ng/mL (≈ 3.76 nM) | 0.771 ng/mL (≈ 0.878 nM) | 24.4 ng/mL (≈ 27.8 nM) | – | – | – | – | – | –
4 | CCCC(=O)O[C@@]12CO[C@@H]1C[C@H](O)[C@@]1(C)C(=O)C(CCN3CCOCC3)C3=C(C)[C@@H](OC(=O)[C@H](O)[C@@H](NC(=O)OC(C)(C)C)c4ccccc4)C[C@@](O)([C@@H](OC(=O)c4ccccc4)[C@H]21)C3(C)C (stereo partly drawn) [Example 24, 4-O-Butanoyl-13-O-[(2R,3S)-3-(tert-butoxycarbonylamino)-2-hydroxy-3-phenylpropionyl]-10-deacetoxy-4-deacetyl-10-(2-morpholinoethyl)baccatin III] | 0.845 ng/mL (≈ 0.906 nM) | 1.67 ng/mL (≈ 1.79 nM) | 4.99 ng/mL (≈ 5.35 nM) | – | – | – | – | – | –
5 | CC(=O)O[C@@]12CO[C@@H]1C[C@H](O)[C@@]1(C)C(=O)C(CCN3CCOCC3)C3=C(C)[C@@H](OC(=O)[C@H](O)[C@@H](NC(=O)OC(C)(C)C)c4ccccc4)C[C@@](O)([C@@H](OC(=O)c4ccccc4)[C@H]21)C3(C)C (stereo partly drawn) [Example 20, 13-O-[(2R,3S)-3-(tert-Butoxycarbonylamino)-2-hydroxy-3-phenylpropionyl]-10-deacetoxy-10-(2-morpholinoethyl)baccatin III] | – | – | – | 3.07 ng/mL (≈ 3.39 nM) | 0.603 ng/mL (≈ 0.666 nM) | 13.5 ng/mL (≈ 14.9 nM) | – | – | –
6 | CC1=C2C(CCN3CCOCC3)C(=O)[C@@]3(C)[C@H]([C@H](OC(=O)c4ccccc4)[C@](O)(C[C@@H]1OC(=O)[C@H](O)[C@@H](NC(=O)OC(C)(C)C)c1ccccc1)C2(C)C)[C@]1(OC(=O)C2CC2)CO[C@@H]1C[C@@H]3O (stereo partly drawn) [Example 36, 13-O-[(2R,3S)-3-(tert-butoxycarbonylamino)-2-hydroxy-3-phenylpropionyl]-4-O-cyclopropylcarbonyl-10-deacetoxy-10-(2-morpholinoethyl)baccatin III] | 0.505 ng/mL (≈ 0.542 nM) | 1.64 ng/mL (≈ 1.76 nM) | 1.81 ng/mL (≈ 1.94 nM) | – | – | – | – | – | –
7 | CCC(=O)O[C@@]12CO[C@@H]1C[C@H](O)[C@@]1(C)C(=O)C(CCN3CCOCC3)C3=C(C)[C@@H](OC(=O)[C@H](O)[C@@H](NC(=O)OC(C)(C)C)c4ccccc4)C[C@@](O)([C@@H](OC(=O)c4ccccc4)[C@H]21)C3(C)C (stereo partly drawn) [Example 26, 13-O-[(2R,3S)-3-(tert-butoxycarbonylamino)-2-hydroxy-3-phenylpropionyl]-10-deacetoxy-4-deacetyl-10-(2-morpholinoethyl)-4-O-propionylbaccatin III] | 1.07 ng/mL (≈ 1.16 nM) | 1.22 ng/mL (≈ 1.33 nM) | 5.64 ng/mL (≈ 6.14 nM) | – | – | – | – | – | –
8 | CCC(=O)O[C@@]12CO[C@@H]1C[C@H](O)[C@@]1(C)C(=O)C(CCN3CCOCC3)C3=C(C)[C@@H](OC(=O)C(O)C(C=C(C)C)NC(=O)OC(C)(C)C)C[C@@](O)([C@@H](OC(=O)c4ccccc4)[C@H]21)C3(C)C (single isomer, unassigned) [Example 33 Isomer B, 13-O-[3-(tert-Butoxycarbonylamino)-2-hydroxy-5-methyl-4-hexenoyl]-10-deacetoxy-4-deacetyl-10-(2-morpholinoethyl)-4-O-propionylbaccatin III] | 0.69 ng/mL (≈ 0.769 nM) | 4.13 ng/mL (≈ 4.6 nM) | 4.16 ng/mL (≈ 4.64 nM) | – | – | – | – | – | –
9 | CCC(=O)O[C@@]12CO[C@@H]1C[C@H](O)[C@@]1(C)C(=O)C(CCN3CCOCC3)C3=C(C)[C@@H](OC(=O)[C@H](O)[C@@H](NC(=O)OC(C)(C)C)c4ccco4)C[C@@](O)([C@@H](OC(=O)c4ccccc4)[C@H]21)C3(C)C (stereo partly drawn) [Example 31, 13-O-[(2R,3S)-3-(tert-Butoxycarbonylamino)-3-(2-furyl)-2-hydroxypropionyl]-10-deacetoxy-4-deacetyl-10-(2-morpholinoethyl)-4-O-propionylbaccatin III] | 0.136 ng/mL (≈ 0.15 nM) | 1.03 ng/mL (≈ 1.13 nM) | 1.26 ng/mL (≈ 1.39 nM) | – | – | – | – | – | –
10 | C=CCC1C(=O)[C@@]2(C)[C@H]([C@H](OC(=O)c3ccccc3)[C@]3(O)C[C@H](OC(=O)[C@H](O)[C@@H](NC(=O)OC(C)(C)C)c4ccccc4)C(C)=C1C3(C)C)[C@]1(OC(C)=O)CO[C@@H]1C[C@@H]2O (stereo partly drawn) [Example 16, 10-Allyl-13-O-[(2R,3S)-3-(tert-butoxycarbonylamino)-2-hydroxy-3-phenylpropionyl]-10-deacetoxybaccatin III] | 1.16 ng/mL (≈ 1.39 nM) | 0.677 ng/mL (≈ 0.814 nM) | 7.87 ng/mL (≈ 9.46 nM) | – | – | – | – | – | –
11 | C=CCC1C(=O)[C@@]2(C)[C@H]([C@H](OC(=O)c3ccccc3)[C@]3(O)C[C@H](OC(=O)[C@H](O)[C@@H](NC(=O)OC(C)(C)C)c4ccco4)C(C)=C1C3(C)C)[C@]1(OC(=O)CCC)CO[C@@H]1C[C@@H]2O (stereo partly drawn) [Example 25, 10-Allyl-4-O-Butanoyl-13-O-[3-(tert-butoxycarbonylamino)-3-(2-furyl)-2-hydroxypropionyl]-10-deacetoxy-4-deacetylbaccatin III] | – | – | – | 0.226 ng/mL (≈ 0.266 nM) | 0.771 ng/mL (≈ 0.907 nM) | 1.34 ng/mL (≈ 1.58 nM) | – | – | –
12 | CC(=O)O[C@H]1C(=O)[C@@]2(C)[C@H]([C@H](OC(=O)c3ccccc3)[C@]3(O)C[C@H](OC(=O)[C@H](O)[C@@H](NC(=O)c4ccccc4)c4ccccc4)C(C)=C1C3(C)C)[C@]1(OC(C)=O)CO[C@@H]1C[C@@H]2O [Taxol] | 30.4 ng/mL (≈ 35.6 nM) | 3.51 ng/mL (≈ 4.11 nM) | 136 ng/mL (≈ 159 nM) | – | – | – | – | inhibitory activity on the disassembly of microtubules in cytokinesis | weak
13 | CC(=O)O[C@@]12CO[C@@H]1C[C@H](O)[C@@]1(C)C(=O)C(CC=O)C3=C(C)[C@@H](OC(=O)[C@H](O)[C@@H](NC(=O)OC(C)(C)C)c4ccccc4)C[C@@](O)([C@@H](OC(=O)c4ccccc4)[C@H]21)C3(C)C (stereo partly drawn) [Example 18, 13-O-[(2R,3S)-3-(tert-Butoxycarbonylamino)-2-hydroxy-3-phenylpropionyl]-10-deacetoxy-10-(formylmethyl)baccatin III] | 1.19 ng/mL (≈ 1.43 nM) | 0.983 ng/mL (≈ 1.18 nM) | 12.9 ng/mL (≈ 15.5 nM) | – | – | – | – | – | –
